The values below come from US9133204B2, “5-membered heterocyclic amides and related compounds” (H. Lundbeck A/S, priority 2007, dated 2015).

One may read the IC50 as the point on the concentration scale where inhibition reaches its midpoint.

One assay addresses T1, P2X7 receptor (Homo sapiens, UniProt Q99572).
T1 construct: host or cells: SH-SY5Y
T1 sequence (Q99572 1-595): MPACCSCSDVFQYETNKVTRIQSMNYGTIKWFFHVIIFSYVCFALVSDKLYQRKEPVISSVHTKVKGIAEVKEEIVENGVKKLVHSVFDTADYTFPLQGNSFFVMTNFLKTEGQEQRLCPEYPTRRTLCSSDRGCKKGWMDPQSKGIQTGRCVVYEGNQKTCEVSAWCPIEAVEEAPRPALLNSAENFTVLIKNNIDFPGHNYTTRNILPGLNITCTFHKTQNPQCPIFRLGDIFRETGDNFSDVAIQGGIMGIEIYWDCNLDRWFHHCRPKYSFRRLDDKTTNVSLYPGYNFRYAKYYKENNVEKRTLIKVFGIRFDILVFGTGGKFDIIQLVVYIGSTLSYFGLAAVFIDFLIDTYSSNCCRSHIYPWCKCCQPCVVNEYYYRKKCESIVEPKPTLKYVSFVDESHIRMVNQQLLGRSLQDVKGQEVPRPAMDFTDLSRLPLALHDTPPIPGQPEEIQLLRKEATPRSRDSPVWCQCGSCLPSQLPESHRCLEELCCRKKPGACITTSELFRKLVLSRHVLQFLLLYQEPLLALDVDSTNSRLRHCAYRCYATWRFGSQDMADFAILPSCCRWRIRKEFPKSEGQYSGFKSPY
In words: High throughput P2X7 calcium mobilization assay (Example 4A). The following applies: SH-SY5Y cells; 50% decrease in fluorescence response of cells exposed to 80 μM BzATP; Table I. Format: cell-based. The method, boiled down:
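SH-SY5Y cells loaded with 2.3 μM Fluo-4 AM for 1 h at 37 °C, then preincubated 1 h at room temperature with test compound (final 1–2500 nM) in low-sodium sucrose buffer, pH 7.4. Antagonism measured against 80 μM BzATP (about EC50) as peak FLIPR calcium fluorescence over 2 min, corrected by no-agonist background.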
(In general: Calcium flux is commonly read through the fluorescence of an indicator in the cells.)
For `Cc1ccc(-n2cc(C(=O)NCC34CC5CC(CC(C5)C3)C4)c(C(F)(F)F)n2)nc1` [Compound 124, N-(adamantan-1-ylmethyl)-1-(5-methylpyridin-2-yl)-3-(trifluoromethyl)-1H-pyrazole-4-carboxamide], the concentration for half-maximal inhibition (IC50) is ≤ 2 µM.
Same read-out and setting: the same measure for `Cc1nn(-c2cncc(N)n2)cc1C(=O)NCC(CC(C)C)c1ccc(C(F)(F)F)cc1` (stereo not shown) [Compound 180, 1-(6-aminopyrazin-2-yl)-3-methyl-N-{4-methyl-2-[4-(trifluoromethyl)phenyl]pentyl}-1H-pyrazole-4-carboxamide]: ≤ 2 µM.
Same read-out and setting: in the case of `Nc1ccnc(-n2cc(C(=O)NCC3(c4cccnc4)CCCCC3)c(C(F)(F)F)n2)n1` [Compound 155, 1-(4-aminopyrimidin-2-yl)-N-[(1-pyridin-3-ylcyclohexyl)methyl]-3-(trifluoromethyl)-1H-pyrazole-4-carboxamide] it was ≤ 2 µM; in that of `NC1CCN(c2nc(C(F)(F)F)c(C(=O)NCC3(c4cccnc4)CCCCC3)s2)CC1` [Compound 303, 2-(4-aminopiperidin-1-yl)-N-[(1-pyridin-3-ylcyclohexyl)methyl]-4-(trifluoromethyl)-1,3-thiazole-5-carboxamide], ≤ 2 µM; in that of `Cc1cnc(-n2cc(C(=O)NCC(CC(C)C)c3ccc(C(F)(F)F)cc3)c(C)n2)nc1N` (stereo not shown) [Compound 115, 1-(4-amino-5-methylpyrimidin-2-yl)-3-methyl-N-{4-methyl-2-[4-(trifluoromethyl)phenyl]pentyl}-1H-pyrazole-4-carboxamide], ≤ 2 µM.
On the same count and under the same terms, in the case of `O=C(NCCc1ccccc1Br)c1cn(-c2ncccn2)nc1C(F)(F)F` [Compound 218, N-[2-(2-bromophenyl)ethyl]-1-pyrimidin-2-yl-3-(trifluoromethyl)-1H-pyrazole-4-carboxamide] it was ≤ 2 µM; in that of `Cc1nn(-c2ncccn2)cc1C(=O)NCC(CC(C)C)c1ccc(C(F)(F)F)cc1` (stereo not shown) [Compound 178, 3-methyl-N-{4-methyl-2-[4-(trifluoromethyl)phenyl]pentyl}-1-pyrimidin-2-yl-1H-pyrazole-4-carboxamide], ≤ 2 µM.
`CCCC(CNC(=O)c1cn(-c2ncccn2)nc1C(F)(F)F)c1ccc(Cl)cc1` (stereo not shown) [Compound 201, N-[2-(4-chlorophenyl)pentyl]-1-pyrimidin-2-yl-3-(trifluoromethyl)-1H-pyrazole-4-carboxamide]: the 50% inhibitory concentration (IC50) was ≤ 2 µM.
Still for that read-out and setting: the same measure for `CCc1nc(-c2ncccn2)sc1C(=O)NCC(CC(C)C)c1ccc(Cl)nc1` (stereo not shown) [Compound 299, N-[2-(6-chloropyridin-3-yl)-4-methylpentyl]-4-ethyl-2-pyrimidin-2-yl-1,3-thiazole-5-carboxamide]: ≤ 2 µM.
On the same count and under the same terms, in the case of `Cc1cncc(-n2cc(C(=O)NCC3(c4cccnc4)CCCCC3)c(C(F)(F)F)n2)n1` [Compound 187, 1-(6-methylpyrazin-2-yl)-N-[(1-pyridin-3-ylcyclohexyl)methyl]-3-(trifluoromethyl)-1H-pyrazole-4-carboxamide] it was ≤ 2 µM.
For `CC(CNC(=O)c1cn(-c2ncccn2)nc1C(F)(F)F)c1ccc(Cl)cc1` (stereo not shown) [Compound 202, N-[2-(4-chlorophenyl)propyl]-1-pyrimidin-2-yl-3-(trifluoromethyl)-1H-pyrazole-4-carboxamide], the IC50 is ≤ 2 µM.
The same measure, in the same setting: the same measure for `CCc1nc(-c2ncccn2)sc1C(=O)NCC(c1ccc(C(F)(F)F)cc1)N(C)C(C)C` (stereo not shown) [Compound 315, 4-ethyl-N-{2-[isopropyl(methyl)amino]-2-[4-(trifluoromethyl)phenyl]ethyl}-2-pyrimidin-2-yl-1,3-thiazole-5-carboxamide]: ≤ 2 µM.

The assay is the same for the next values; noted with them: SH-SY5Y cells; 50% decrease in fluorescence response of cells exposed to 80 μM BzATP; flag after the MS data in Examples 1-2.
On to `Cc1ccc(C2(CNC(=O)c3cn(-c4ncccn4)nc3Cl)CCCCC2)cn1` [Compound 12, 3-Chloro-N-{[1-(6-methylpyridin-3-yl)cyclohexyl]methyl}-1-pyrimidin-2-yl-1H-pyrazole-4-carboxamide], for which the IC50 is ≤ 2 µM.
